We go through 17 compounds from patent US7683168B2, “Compositions of novel opioid compounds and method of use thereof” (priority 2005, dated 2010).

The target in one data set is T1, human delta receptor (Homo sapiens, UniProt P41143).
T1 construct: purchased Perkin Elmer, Boston, Mass; 6110549; host or cells: HEK-293 cells
In words: radioligand binding, human delta receptor, HEK-293 cell membranes. Particulars: cell not marked (rat), species not given, read-out: δ.

For another data set, the system named is mouse vas deferens. The data set can be described thus: electrically stimulated mouse vas deferens (MVD) ED50. In kind it is cell-based. Particulars: ED50, inhibition of electrically induced contractions.
In a further data set the target is T2, human mu opioid receptor (Homo sapiens, UniProt P35372).
T2 construct: purchased Perkin Elmer, Boston, Mass; 6110535; host or cells: CHO cells
The data set can be described thus: radioligand binding, human mu opioid receptor, CHO cell membranes. Particulars: species not given, read-out: μ.

A further data set deals with guinea pig ileum. The data set can be described thus: electrically stimulated guinea pig ileum (GPI) ED50. Particulars: Cavia porcellus; ED50, inhibition of electrically induced contractions. It is filed as cell-based. As to the method: Further the compounds of formula (1) were evaluated for in vitro opioid receptor activity in various receptor systems, including mouse vas deferens (Mouse Vas Deferens ED50), and guinea pig ileum (Guinea Pig Ileum ED50). The assay procedures used for such determinations of receptor activity are set out below.
Intact ileums (about 3 cm length) were removed from guinea pig and suspended with 1 g of tension in a bath chamber as described for the vasa deferentia. The ileums were stimulated with electrical square-wave pulses of 0.1-Hz, 1 msec pulse duration at supramaximal voltage.
The ED50 values were extrapolated from curves showing the dose concentration plotted against the response (J. A. H. Lord, A. A. Waterfield, J. Hughes, H. W. Kosterlitz, Nature 267, 495, (1977)).

Data set [1] has as its system seizure-like convulsions in mice. In words: mouse seizure-like convulsions. It is filed as in vivo. As to the method: Mouse Seizure-Like Convulsions and antinociception: The central (CNS) effects of the compound were tested with central delta receptor mediated seizure-like convulsions and central mu opioid receptor mediated antinociceptive effects in mice. Male CD-1 mice (Charles River, Raleigh, N.C.) weighing 20-25 g were used to determine the seizure-like convulsion and antinociception activities for compounds.
They were then observed for seizure-like convulsions for one hour following the treatment. A seizure-like event was recorded if a mouse had uncontrollable clonic (or tonic/clonic) muscle movements that encompassed its entire body, usually followed by a brief cataleptic period. Catalepsy was determined by placing the animal's front paws on a horizontal bar held 2-3 inches from the cage floor. Cataleptic animals made no attempt to remove their paws.

T1 sequence (P41143 whole entry): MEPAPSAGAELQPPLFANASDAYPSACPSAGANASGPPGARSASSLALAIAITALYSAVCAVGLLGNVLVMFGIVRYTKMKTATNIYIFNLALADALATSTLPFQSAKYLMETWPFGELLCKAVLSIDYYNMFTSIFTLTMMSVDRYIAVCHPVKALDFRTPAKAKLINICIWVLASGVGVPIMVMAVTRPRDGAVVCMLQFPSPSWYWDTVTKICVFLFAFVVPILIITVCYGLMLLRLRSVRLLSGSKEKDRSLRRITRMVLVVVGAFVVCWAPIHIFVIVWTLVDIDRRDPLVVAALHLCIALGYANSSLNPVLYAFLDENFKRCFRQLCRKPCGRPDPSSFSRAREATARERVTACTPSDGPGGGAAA
T2 sequence (P35372 whole entry): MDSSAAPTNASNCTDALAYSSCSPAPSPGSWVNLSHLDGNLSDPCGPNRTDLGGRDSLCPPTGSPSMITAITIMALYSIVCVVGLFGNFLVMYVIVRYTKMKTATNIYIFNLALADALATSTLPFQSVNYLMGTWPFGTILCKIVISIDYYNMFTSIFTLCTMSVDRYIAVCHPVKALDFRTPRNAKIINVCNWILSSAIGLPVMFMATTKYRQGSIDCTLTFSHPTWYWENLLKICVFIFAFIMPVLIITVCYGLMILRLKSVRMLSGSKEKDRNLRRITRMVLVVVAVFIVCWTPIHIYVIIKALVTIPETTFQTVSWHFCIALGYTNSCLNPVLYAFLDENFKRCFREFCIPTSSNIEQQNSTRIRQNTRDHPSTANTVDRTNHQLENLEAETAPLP

The EC50 is the concentration that produces a half-maximal response. A lower EC50 goes with greater potency. With `CCOC(=O)CCCN1CCCN(C(=O)c2cccc(C(c3cccc(O)c3)N3C[C@@H](C)N(Cc4cccc(F)c4)C[C@@H]3C)c2)CC1` (stereo partly drawn), the Ki at human delta receptor amounted to 1.7 nM; on human mu opioid receptor it was 2.3 nM. The figures for the EC50 with mouse vas deferens and in the data set on guinea pig ileum were 30 nM and 1500 nM, respectively.

With `C[C@@H]1CN(C(c2cccc(O)c2)c2cccc(C(=O)N3CCCN(CCCCCC(=O)O)CC3)c2)[C@@H](C)CN1Cc1ccccc1` (stereo partly drawn), the Ki on human delta receptor came out at 2.8 nM; at human mu opioid receptor, 3.9 nM. In addition, the EC50 in the data set on mouse vas deferens amounted to 3.26 nM; with guinea pig ileum, 303 nM.

`C=CCN1C[C@H](C)N([C@@H](c2cccc(O)c2)c2cccc(C(=O)N3CCC(C(=O)O)CC3)c2)C[C@H]1C` [Example 120, 1-{3-[(R)-((2S,5R)-4-Allyl-2,5-dimethyl-piperazin-1-yl)-(3-hydroxy-phenyl)-methyl]-benzoyl}-piperidine-4-carboxylic acid] came in with a Seiz. in data set [1] (10 mg/kg IV) of 10% 10 mg/kg IV. Also, the half-maximal effective concentration (EC50) came out at 2.49 nM in the data set with mouse vas deferens and 48.6 nM in the data set with guinea pig ileum. For the same compound, the Ki at human mu opioid receptor turned out to be 4.1 nM.

As to `C[C@@H]1CN([C@@H](c2cccc(O)c2)c2cccc(C(=O)N3CCC(C(=O)O)CC3)c2)[C@@H](C)CN1Cc1ccccc1` [Example 123, 1-{3-[(R)-((2S,5R)-4-Benzyl-2,5-dimethyl-piperazin-1-yl)-(3-hydroxy-phenyl)-methyl]-benzoyl}-piperidine-4-carboxylic acid], the Seiz. in data set [1] (10 mg/kg IV) was 0% 10 mg/kg IV. The half-maximal effective concentration (EC50) turned out to be 0.48 nM with mouse vas deferens and 17.8 nM in the data set with guinea pig ileum.

On to `C[C@@H]1CN([C@@H](c2cccc(O)c2)c2cccc(C(=O)N3CCC(C(=O)O)CC3)c2)[C@@H](C)CN1Cc1cccc(F)c1` [Example 125, 1-{3-[(R)-[(2S,5R)-4-(3-Fluoro-benzyl)-2,5-dimethyl-piperazin-1-yl]-(3-hydroxyphenyl)-methyl]-benzoyl}-piperidine-4-carboxylic acid], for which the Seiz. in data set [1] (10 mg/kg IV) is 0% 10 mg/kg IV. For the same compound, the results for the EC50 with mouse vas deferens and with guinea pig ileum were 1.42 nM and 46.7 nM, respectively.

As to `C[C@@H]1CN([C@@H](c2cccc(O)c2)c2cccc(C(=O)N3CCN(CCCC(=O)O)CC3)c2)[C@@H](C)CN1CC1CC1` [Example 78, 4-(4-{3-[(R)-((2S,5R)-4-Cyclopropylmethyl-2,5-dimethyl-piperazin-1-yl)-(3-hydroxy-phenyl)-methyl]-benzoyl}-piperazin-1-yl)-butyric acid], the Ki on human delta receptor turned out to be 10.2 nM; at human mu opioid receptor, 194 nM. Also, the Seiz. in data set [1] (10 mg/kg IV) came to 0% 10 mg/kg IV. Moreover, the EC50 in the data set with mouse vas deferens was determined as 26.6 nM.

For the compound `C=CCN1C[C@H](C)N([C@@H](c2cccc(O)c2)c2cccc(C(=O)N3CCN(C(=O)OCC)CC3)c2)C[C@H]1C` [Example 57, 4-{3-[(R)-((2S,5R)-4-Allyl-2,5-dimethylpiperazin-1-yl)(3-hydroxy-phenyl)methyl]benzoyl}piperazine-1-carboxylic acid ethyl ester], the figures for the Ki at human delta receptor and at human mu opioid receptor were 0.81 nM and 0.8 nM, respectively. Also, the Seiz. in data set [1] (10 mg/kg IV) was 40% 10 mg/kg IV. For the same compound, in the data set with mouse vas deferens, the EC50 amounted to 5.15 nM.

Compound `C[C@@H]1CN(C(c2cccc(O)c2)c2cccc(C(=O)N3CCCN(CC(=O)O)CC3)c2)[C@@H](C)CN1Cc1ccccc1` (stereo partly drawn) had a Seiz. in data set [1] (20 mg/kg IV) of 0% 20 mg/kg IV. Moreover, the results for the EC50 in the data set on mouse vas deferens and in the data set on guinea pig ileum were 1.4 nM and > 1000 nM, respectively. Also, the Ki at human mu opioid receptor came to 1.27 nM.

On to `CCOC(=O)N1CCN(C(=O)c2cccc([C@H](c3cccc(O)c3)N3C[C@@H](C)N(Cc4ccccc4)C[C@@H]3C)c2)CC1` [Example 62, 4-{3-[(R)-((2S,5R)-4-Benzyl-2,5-dimethyl-piperazin-1-yl)-(3-hydroxy-phenyl)-methyl]-benzoyl}-piperazine-1-carboxylic acid ethyl ester], for which the Ki stood at 2.2 nM at human delta receptor and 1.7 nM at human mu opioid receptor. Moreover, in data set [1] (10 mg/kg IV), the Seiz. worked out at 70% 10 mg/kg IV. The compound also had an EC50 in the data set on mouse vas deferens of 6.78 nM.

For the compound `CCOC(=O)CCCCN1CCN(C(=O)c2cccc([C@H](c3cccc(O)c3)N3C[C@@H](C)N(Cc4ccccc4)C[C@@H]3C)c2)CC1` [Example 86, 5-(4-{3-[(R)-[(2S,5R)-4-Benzyl-2,5-dimethyl-piperazin-1-yl]-(3-hydroxy-phenyl)-methyl]-benzoyl}-piperazin-1-yl)-pentanoic acid ethyl ester], the values for the Ki at human delta receptor and at human mu opioid receptor were 3.1 nM and 9.1 nM, respectively. For the same compound, in data set [1] (10 mg/kg IV), the Seiz. stood at 60% 10 mg/kg IV. This compound also displayed a concentration for a half-maximal effect (EC50) in the data set on mouse vas deferens of 12.6 nM.

For `CCOC(=O)CCCN1CCCN(C(=O)c2cccc(C(c3cccc(O)c3)N3C[C@@H](C)N(Cc4ccccc4)C[C@@H]3C)c2)CC1` (stereo partly drawn), the Ki came out at 50.1 nM at human delta receptor and 1.2 nM on human mu opioid receptor. In data set [1] (10 mg/kg IV), this compound returned a Seiz. of 30% 10 mg/kg IV. The compound also gave an EC50 in the data set with mouse vas deferens of 10.6 nM.

Regarding `C[C@@H]1CN([C@@H](c2cccc(O)c2)c2cccc(C(=O)N3CCN(CCCCCC(=O)O)CC3)c2)[C@@H](C)CN1Cc1ccccc1` [Example 97, 6-(4-{3-[(R)-((2S,5R)-4-Benzyl-2,5-dimethyl-piperazin-1-yl)-(3-hydroxy-phenyl)-methyl]-benzoyl}-piperazin-1-yl)-hexanoic acid], the Ki at human delta receptor came out at 1.2 nM. Further, in data set [1] (10 mg/kg IV), the Seiz. is given as 0% 10 mg/kg IV. The EC50 turned out to be 2.5 nM with mouse vas deferens and 445 nM in the data set with guinea pig ileum.

As for `CCOC(=O)CCCCN1CCCN(C(=O)c2cccc(C(c3cccc(O)c3)N3C[C@@H](C)N(Cc4ccccc4)C[C@@H]3C)c2)CC1` (stereo partly drawn), the Ki amounted to 2.6 nM at human delta receptor and 6.3 nM on human mu opioid receptor. In data set [1] (10 mg/kg IV), this compound came in with a Seiz. of 25% 10 mg/kg IV. The compound also showed an EC50 in the data set on mouse vas deferens of 11.1 nM.

Turning to `C=CCN1C[C@H](C)N([C@@H](c2cccc(O)c2)c2cccc(C(=O)N3CCN(CC(=O)OCC)CC3)c2)C[C@H]1C` [Example 63, (4-{3-[(R)-((2S,5R)-4-Allyl-2,5-dimethyl-piperazin-1-yl)-(3-hydroxy-phenyl)-methyl]-benzoyl}-piperazin-1-yl)-acetic acid ethyl ester], the Ki turned out to be 0.44 nM at human delta receptor and 0.47 nM on human mu opioid receptor. In data set [1] (10 mg/kg IV), this compound gave a Seiz. of 20% 10 mg/kg IV. This compound gave an EC50 in the data set on mouse vas deferens of 7.71 nM.

Take `CCOC(=O)CCCCN1CCCN(C(=O)c2cccc(C(c3cccc(O)c3)N3C[C@@H](C)N(Cc4cccc(F)c4)C[C@@H]3C)c2)CC1` (stereo partly drawn): the Ki on human delta receptor was determined as 6.1 nM; on human mu opioid receptor, 15.7 nM. In data set [1] (10 mg/kg IV), this compound registered a Seiz. of 0% 10 mg/kg IV. Moreover, the concentration giving a half-maximal response (EC50) in the data set with mouse vas deferens worked out at 61.5 nM.

For `C=CCN1C[C@H](C)N([C@@H](c2cccc(O)c2)c2cccc(C(=O)N3CCC(NCc4ccc(C(=O)O)cc4)CC3)c2)C[C@H]1C` [Example 140, 4-[(1-{3-[(R)-((2S,5R)-4-Allyl-2,5-dimethyl-piperazin-1-yl)-(3-hydroxy-phenyl)-methyl]-benzoyl}-piperidin-4-ylamino)-methyl]-benzoic acid], the Ki on human delta receptor turned out to be 1.2 nM; at human mu opioid receptor it was 4.6 nM. The same compound yielded a Seiz. in data set [1] (10 mg/kg IV) of 0% 10 mg/kg IV. The EC50 in the data set with mouse vas deferens came out at 6.74 nM.

With `C[C@@H]1CN([C@@H](c2cccc(O)c2)c2cccc(C(=O)N3CCN(CCCCCCC(=O)O)CC3)c2)[C@@H](C)CN1Cc1ccccc1` [Example 111, 7-(4-{3-[(R)-((2S,5R)-4-Benzyl-2,5-dimethyl-piperazin-1-yl)-(3-hydroxy-phenyl)-methyl]-benzoyl}-piperazin-1-yl)-heptanoic acid], the Ki on human delta receptor came to 0.77 nM; on human mu opioid receptor, 8.7 nM. The Seiz. in data set [1] (10 mg/kg IV) is on record as 0% 10 mg/kg IV. In the data set with mouse vas deferens, this compound displayed an EC50 of 3.82 nM.
